Assay [1] relates to GP2D cells. The assay is described as follows: Ras cellular assay, growth of cells with K-Ras G12D mutation (CellTiter-Glo). Format: cell-based. To be noted: cell growth, Example 9, G12D mutation, read-out: IC50 against GP2D cells. For orientation: Cellular ATP, detected with luciferase, serves as a proxy for viable cell number.
The target in assay [2] is T1, K-Ras G12S (Homo sapiens, UniProt P01116, G12S).
T1 construct: made in house; host or cells: E. coli BL21 (DE3)
The assay is described as follows: HTRF resonance energy transfer assay, K-Ras G12S / SOS1 interaction. To be noted: HTRF assay of Example 5; read-out: IC50 against K-Ras G12S. Format: biochemical. In outline:
(§1)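 Buffer about 5 mM HEPES pH 7.4 with ~150 mM NaCl, ~1 mM DTT, 0.05% BSA, 0.0025% (v/v) Igepal. Protein constructs used at molarity matching the IC50 range studied (e.g. ~500 nM). FRET between tagged K-Ras and hSOS1 measured after short incubation.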
On the technique in general: In TR-FRET formats the signal depends on donor and acceptor labels being close together.

The target of assay [3] is T2, K-Ras G12V (Homo sapiens, UniProt P01116, G12V).
T2 construct: made in house; host or cells: E. coli BL21 (DE3)
T2 sequence (P01116 1-188 isoform P01116-2 G12V): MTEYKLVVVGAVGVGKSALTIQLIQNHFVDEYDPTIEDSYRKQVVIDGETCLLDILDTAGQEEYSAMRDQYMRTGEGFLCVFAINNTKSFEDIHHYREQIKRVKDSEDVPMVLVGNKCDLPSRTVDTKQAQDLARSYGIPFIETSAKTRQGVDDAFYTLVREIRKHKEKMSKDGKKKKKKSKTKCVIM
Put plainly: HTRF resonance energy transfer assay, K-Ras G12V / SOS1 interaction. To be noted: HTRF assay of Example 5; read-out: IC50 against K-Ras G12V. Format: biochemical. In outline:
as §1

The target in assay [4] is T3, K-Ras WT (Homo sapiens, UniProt P01116).
T3 construct: made in house; host or cells: E. coli BL21 (DE3)
T3 sequence (P01116 1-188 isoform P01116-2): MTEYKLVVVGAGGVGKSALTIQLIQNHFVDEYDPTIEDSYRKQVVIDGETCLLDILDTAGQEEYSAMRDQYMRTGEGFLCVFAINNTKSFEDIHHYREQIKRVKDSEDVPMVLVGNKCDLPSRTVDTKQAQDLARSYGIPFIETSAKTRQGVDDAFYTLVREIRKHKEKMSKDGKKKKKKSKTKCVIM
Put plainly: HTRF resonance energy transfer assay, K-Ras WT / SOS1 interaction. Format: biochemical. To be noted: HTRF assay of Example 5; read-out: IC50 against K-Ras WT. In short, it runs like this: as §1

Assay [5] concerns the target T4, K-Ras G12D (Homo sapiens, UniProt P01116, G12D).
T4 construct: made in house; host or cells: E. coli BL21 (DE3)
The assay is described as follows: HTRF resonance energy transfer assay, K-Ras G12D / SOS1 interaction. In kind it is biochemical. To be noted: HTRF assay of Example 5; read-out: IC50 against K-Ras G12D. In short, it runs like this: as §1

In assay [6] the test system is SW620 cells. The assay is described as follows: Ras cellular assay, growth of cells with K-Ras G12V mutation (CellTiter-Glo). Format: cell-based. To be noted: Homo sapiens, SW-620; cell growth, Example 9, G12V mutation; read-out: IC50 against SW620 cells. In short, it runs like this: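 IC50 values came from a four-parameter fit of CellTiter-Glo viability, read roughly 6 days after dosing with e.g. a 10-point threefold dilution series. G12V-mutant SW620 cells (e.g. 800 per well) had been plated the previous day in RPMI-1640/10% heat-inactivated FBS, on tissue culture-treated or ultra-low attachment plates.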

In assay [7] the test system is A549 cells. The assay is described as follows: Ras cellular assay, growth of cells with K-Ras G12S mutation (CellTiter-Glo). Format: cell-based. To be noted: Homo sapiens, cell growth, Example 9, G12S mutation, read-out: IC50 against A549 cells. In short, it runs like this: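 Growth inhibition IC50 values come from four-parameter fits of CellTiter-Glo luminescence, read about 6 days after compound addition. G12S-mutant A549 cells (e.g. 800/well, RPMI-1640 + 10% heat-inactivated FBS) were plated in tissue-culture-treated or ultra-low-attachment 384-well format. Dosing began the following day with serial dilutions, e.g. 10 points, 3-fold.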

Broadly, the IC50 is the concentration needed to halve the response being measured.

Where only a bound is given, the exact number is not on record here.

T4 sequence (P01116 1-188 isoform P01116-2 G12D): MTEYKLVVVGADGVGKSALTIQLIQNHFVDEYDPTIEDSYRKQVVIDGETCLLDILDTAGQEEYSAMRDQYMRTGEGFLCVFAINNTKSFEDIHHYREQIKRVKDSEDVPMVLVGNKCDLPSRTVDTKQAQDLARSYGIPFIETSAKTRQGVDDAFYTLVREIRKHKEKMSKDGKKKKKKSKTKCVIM
T1 sequence (P01116 1-188 isoform P01116-2 G12S): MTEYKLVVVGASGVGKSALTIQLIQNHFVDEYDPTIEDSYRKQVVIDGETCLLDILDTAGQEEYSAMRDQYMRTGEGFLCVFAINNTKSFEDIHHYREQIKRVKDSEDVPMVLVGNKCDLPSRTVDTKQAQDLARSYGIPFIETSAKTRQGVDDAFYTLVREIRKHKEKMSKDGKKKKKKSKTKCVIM

`N#Cc1c(N)sc2c(F)ccc(-c3c(Cl)c4c5c(nc(OC[C@@]67CCCN6C[C@H](F)C7)nc5c3F)N(CC3CC3C#N)[C@@H](C3(O)CC3)CO4)c12` (single isomer, unassigned) [Compound 942]: the IC50 in assay [1] was less than 500 nM.

Consider `N#Cc1c(N)sc2c(F)ccc(-c3c(Cl)c4c5c(nc(OC[C@@]67CCCN6C[C@H](F)C7)nc5c3F)N(C3CCCCC3O)CCO4)c12` (stereo partly drawn) [Compound 602, 2-amino-4-(8-chloro-10-fluoro-2-(((2R,7aS)-2-fluorotetrahydro-1H-pyrrolizin-7a(5H)-yl)methoxy)-4-(2-hydroxycyclohexyl)-5,6-dihydro-4H-[1,4]oxazepino[5,6,7-de]quinazolin-9-yl)-7-fluorobenzo[b]thiophene-3-carbonitrile], for which the IC50 in assay [1] was less than 500 nM.

For the compound `C[C@H]1COc2c(Cl)c(-c3ccc(F)c4sc(N)c(C#N)c34)c(F)c3nc(OC[C@@]45CCCN4C[C@H](F)C5)nc(c23)N1C1CCOC1` (stereo partly drawn) [Compound 647, 2-amino-4-((5S)-8-chloro-10-fluoro-2-(((2R,7aS)-2-fluorotetrahydro-1H-pyrrolizin-7a(5H)-yl)methoxy)-5-methyl-4-(tetrahydrofuran-3-yl)-5,6-dihydro-4H-[1,4]oxazepino[5,6,7-de]quinazolin-9-yl)-7-fluorobenzo[b]thiophene-3-carbonitrile], the IC50 in assay [1] is less than 500 nM.

Consider `N#Cc1c(N)sc2c(F)ccc(-c3c(Cl)c4c5c(nc(OC[C@@]67CCCN6C[C@H](F)C7)nc5c3F)N(C3CCC5(C3)CN(C(=O)C3CC3)C5)CCO4)c12` (stereo partly drawn) [Compound 650, 2-amino-4-(8-chloro-4-(2-(cyclopropanecarbonyl)-2-azaspiro[3.4]octan-6-yl)-10-fluoro-2-(((2R,7aS)-2-fluorotetrahydro-1H-pyrrolizin-7a(5H)-yl)methoxy)-5,6-dihydro-4H-[1,4]oxazepino[5,6,7-de]quinazolin-9-yl)-7-fluorobenzo[b]thiophene-3-carbonitrile], for which, in assay [1], the IC50 is less than 500 nM.

Consider `N#Cc1c(N)sc2c(F)ccc(-c3c(Cl)c4c5c(nc(OC[C@@]67CCCN6C[C@H](F)C7)nc5c3F)N(CC(F)F)[C@@H](C3(O)CC3)CO4)c12` [Compound 707, 2-amino-4-((R)-8-chloro-4-(2,2-difluoroethyl)-10-fluoro-2-(((2R,7aS)-2-fluorotetrahydro-1H-pyrrolizin-7a(5H)-yl)methoxy)-5-(1-hydroxycyclopropyl)-5,6-dihydro-4H-[1,4]oxazepino[5,6,7-de]quinazolin-9-yl)-7-fluorobenzo[b]thiophene-3-carbonitrile], for which the IC50 in assay [1] is less than 500 nM; in assay [2], less than 100 nM; in assay [3], less than 100 nM; in assay [4], less than 100 nM; in assay [5], less than 100 nM.

In the case of `C[C@H]1COc2c(Cl)c(-c3ccc(F)c4sc(N)c(C#N)c34)c(F)c3nc(OC[C@@]45CCCN4C[C@H](F)C5)nc(c23)N1CC1CC1C#N` (stereo partly drawn) [Compound 731, 2-amino-4-((5S)-8-chloro-4-((2-cyanocyclopropyl)methyl)-10-fluoro-2-(((2R,7aS)-2-fluorotetrahydro-1H-pyrrolizin-7a(5H)-yl)methoxy)-5-methyl-5,6-dihydro-4H-[1,4]oxazepino[5,6,7-de]quinazolin-9-yl)-7-fluorobenzo[b]thiophene-3-carbonitrile], in assay [1], the IC50 was less than 500 nM.

As for `N#Cc1c(N)sc2c(F)ccc(-c3c(Cl)c4c5c(nc(OC[C@@]67CCCN6C[C@H](F)C7)nc5c3F)N(C3CCOC3)[C@@H](C(F)F)CO4)c12` (stereo partly drawn) [Compound 871, 2-amino-4-((5R)-8-chloro-5-(difluoromethyl)-10-fluoro-2-(((2R,7aS)-2-fluorotetrahydro-1H-pyrrolizin-7a(5H)-yl)methoxy)-4-(tetrahydrofuran-3-yl)-5,6-dihydro-4H-[1,4]oxazepino[5,6,7-de]quinazolin-9-yl)-7-fluorobenzo[b]thiophene-3-carbonitrile], the IC50 in assay [1] was less than 500 nM.

For `C=C(C)[C@H]1COc2c(Cl)c(-c3ccc(F)c4sc(N)c(C#N)c34)c(F)c3nc(OC[C@@]45CCCN4C[C@H](F)C5)nc(c23)N1CC(F)F` [Compound 879, 2-amino-4-((5S)-8-chloro-4-(2,2-difluoroethyl)-10-fluoro-2-(((2R,7aS)-2-fluorotetrahydro-1H-pyrrolizin-7a(5H)-yl)methoxy)-5-(prop-1-en-2-yl)-5,6-dihydro-4H-[1,4]oxazepino[5,6,7-de]quinazolin-9-yl)-7-fluorobenzo[b]thiophene-3-carbonitrile], the 50% inhibitory concentration (IC50) is less than 500 nM in assay [1]; less than 100 nM in assay [2]; less than 100 nM in assay [3]; less than 100 nM in assay [4]; less than 100 nM in assay [5].

For `N#Cc1c(N)sc2c(F)ccc(-c3c(Cl)c4c5c(nc(OC[C@@]67CCCN6C[C@H](F)C7)nc5c3F)N(CC3CC3C#N)[C@@H](C(F)F)CO4)c12` (stereo partly drawn) [Compound 938, 2-amino-4-((5R)-8-chloro-4-((2-cyanocyclopropyl)methyl)-5-(difluoromethyl)-10-fluoro-2-(((2R,7aS)-2-fluorotetrahydro-1H-pyrrolizin-7a(5H)-yl)methoxy)-5,6-dihydro-4H-[1,4]oxazepino[5,6,7-de]quinazolin-9-yl)-7-fluorobenzo[b]thiophene-3-carbonitrile], in assay [1], the IC50 is less than 500 nM.

Turning to `CNCCN1CCOc2c(Cl)c(-c3ccc(F)c4sc(N)c(C#N)c34)c(F)c3nc(OC[C@@]45CCCN4C[C@H](F)C5)nc1c23` [Compound 961, 2-amino-4-(8-chloro-10-fluoro-2-(((2R,7aS)-2-fluorotetrahydro-1H-pyrrolizin-7a(5H)-yl)methoxy)-4-(2-(methylamino)ethyl)-5,6-dihydro-4H-[1,4]oxazepino[5,6,7-de]quinazolin-9-yl)-7-fluorobenzo[b]thiophene-3-carbonitrile], the IC50 in assay [1] was less than 500 nM; in assay [2], less than 100 nM; in assay [3], less than 100 nM; in assay [4], less than 100 nM; in assay [5], less than 100 nM.

On to `N#Cc1c(N)sc2c(F)ccc(-c3c(Cl)c4c5c(nc(OC[C@@]67CCCN6C[C@H](F)C7)nc5c3F)N(C3CC(NC=O)C3)CCO4)c12` (stereo partly drawn) [Compound 988, N-(3-(9-(2-amino-3-cyano-7-fluorobenzo[b]thiophen-4-yl)-8-chloro-10-fluoro-2-(((2R,7aS)-2-fluorotetrahydro-1H-pyrrolizin-7a(5H)-yl)methoxy)-5,6-dihydro-4H-[1,4]oxazepino[5,6,7-de]quinazolin-4-yl)cyclobutyl)formamide], for which, in assay [1], the IC50 is less than 500 nM.

Turning to `N#Cc1c(N)sc2c(F)ccc(-c3c(Cl)c4c5c(nc(OC[C@@]67CCCN6C[C@H](F)C7)nc5c3F)N([C@@H]3CCNC3)CCO4)c12` [Compound 1124, 2-amino-4-(8-chloro-10-fluoro-2-(((2R,7aS)-2-fluorotetrahydro-1H-pyrrolizin-7a(5H)-yl)methoxy)-4-((R)-pyrrolidin-3-yl)-5,6-dihydro-4H-[1,4]oxazepino[5,6,7-de]quinazolin-9-yl)-7-fluorobenzo[b]thiophene-3-carbonitrile], the IC50 in assay [1] is less than 500 nM; in assay [2] it was less than 100 nM; in assay [3], less than 100 nM; in assay [4], less than 100 nM; in assay [5], less than 100 nM.

For `CC1COc2c(Cl)c(-c3ccc(F)c4sc(N)c(C#N)c34)c(F)c3nc(OC[C@@]45CCCN4C[C@H](F)C5)nc(c23)N(C)[C@@H]1C` (stereo partly drawn) [Compound 1206, 2-amino-4-((5R)-9-chloro-11-fluoro-2-(((2R,7aS)-2-fluorotetrahydro-1H-pyrrolizin-7a(5H)-yl)methoxy)-4,5,6-trimethyl-4,5,6,7-tetrahydro-[1,5]oxazocino[4,3,2-de]quinazolin-10-yl)-7-fluorobenzo[b]thiophene-3-carbonitrile], the IC50 in assay [2] was less than 100 nM; in assay [6], less than 5 µM; in assay [3] it was less than 100 nM; in assay [4], less than 100 nM; in assay [7], less than 5 µM; in assay [5], less than 100 nM.

In the case of `CC1CCOc2c(Cl)c(-c3ccc(F)c4sc(N)c(C#N)c34)c(F)c3nc(OC[C@@]45CCCN4C[C@H](F)C5)nc(c23)N1C1CC1` (stereo partly drawn) [Compound 1215, 2-amino-4-(9-chloro-4-cyclopropyl-11-fluoro-2-(((2R,7aS)-2-fluorotetrahydro-1H-pyrrolizin-7a(5H)-yl)methoxy)-5-methyl-4,5,6,7-tetrahydro-[1,5]oxazocino[4,3,2-de]quinazolin-10-yl)-7-fluorobenzo[b]thiophene-3-carbonitrile], the IC50 in assay [2] is less than 100 nM; in assay [6], less than 5 µM; in assay [3], less than 100 nM; in assay [4], less than 100 nM; in assay [7] it was less than 5 µM; in assay [5] it was less than 100 nM.
